Reference: PubChem BioAssay (NCI)
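GI50: concentration for 50% inhibition of growth. At the TGI there is no net growth.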

Key:
Test in all cases: NCI-60 cell line screen, 384-well format
DU-145 prostate = tested on: DU-145 prostate
SF-268 CNS = tested on: SF-268 CNS
SW-620 colon = tested on: SW-620 colon
OVCAR-3 ovarian = tested on: OVCAR-3 ovarian
SF-295 CNS = tested on: SF-295 CNS
SF-539 CNS = tested on: SF-539 CNS
MDA-MB-231 breast = tested on: MDA-MB-231 breast
UACC-62 melanoma = tested on: UACC-62 melanoma
OVCAR-8 ovarian = tested on: OVCAR-8 ovarian
M14 melanoma = tested on: M14 melanoma
A549 NSCLC = tested on: A549 NSCLC
NCI-H460 NSCLC = tested on: NCI-H460 NSCLC
NCI-H322M lung = tested on: NCI-H322M lung
MCF7 breast = tested on: MCF7 breast
HT29 colon = tested on: HT29 colon
SK-OV-3 ovarian = tested on: SK-OV-3 ovarian
SN12C renal = tested on: SN12C renal
HCT-15 colon = tested on: HCT-15 colon
EKVX NSCLC = tested on: EKVX NSCLC
MDA-MB-468 breast = tested on: MDA-MB-468 breast
SK-MEL-28 melanoma = tested on: SK-MEL-28 melanoma
HCC-2998 colon = tested on: HCC-2998 colon
U251 glioblastoma = tested on: U251 glioblastoma
CCRF-CEM leukemia = tested on: CCRF-CEM leukemia
IGROV1 ovarian = tested on: IGROV1 ovarian
NCI/ADR-RES ovarian = tested on: NCI/ADR-RES ovarian
SK-MEL-5 melanoma = tested on: SK-MEL-5 melanoma
SR leukemia = tested on: SR leukemia
PC-3 prostate = tested on: PC-3 prostate
HOP-92 NSCLC = tested on: HOP-92 NSCLC
A498 renal = tested on: A498 renal
HL-60(TB) leukemia = tested on: HL-60(TB) leukemia
TK-10 renal = tested on: TK-10 renal
MALME-3M melanoma = tested on: MALME-3M melanoma
NCI-H226 lung = tested on: NCI-H226 lung
ACHN renal = tested on: ACHN renal
K-562 leukemia = tested on: K-562 leukemia
RPMI-8226 leukemia = tested on: RPMI-8226 leukemia
T-47D breast = tested on: T-47D breast
NCI-H23 lung = tested on: NCI-H23 lung
RXF 393 renal = tested on: RXF 393 renal
HOP-62 NSCLC = tested on: HOP-62 NSCLC
CAKI-1 renal = tested on: CAKI-1 renal
KM12 colon = tested on: KM12 colon
786-0 renal = tested on: 786-0 renal
MOLT-4 leukemia = tested on: MOLT-4 leukemia
OVCAR-5 ovarian = tested on: OVCAR-5 ovarian

Structure (SMILES): COC(=O)c1ccc([C@H]2c3[nH]c4ccccc4c3C[C@H](C(=O)OC)N2C(=O)CCl)cc1
- GI50 (DU-145 prostate): 0.336 µM
- TGI (DU-145 prostate): 1.64 µM
- GI50 (SF-268 CNS): 0.0195 µM
- TGI (SF-268 CNS): 0.0423 µM
- GI50 (SW-620 colon): 0.199 µM
- TGI (SW-620 colon): 0.504 µM
- GI50 (OVCAR-3 ovarian): 0.0143 µM
- TGI (OVCAR-3 ovarian): 0.0288 µM
- GI50 (SF-295 CNS): 0.103 µM
- TGI (SF-295 CNS): 0.221 µM
- GI50 (SF-539 CNS): 0.0339 µM
- TGI (SF-539 CNS): 0.114 µM
- GI50 (MDA-MB-231 breast): 0.0144 µM
- TGI (MDA-MB-231 breast): 0.0286 µM
- GI50 (UACC-62 melanoma): 0.0193 µM
- TGI (UACC-62 melanoma): 0.0416 µM
- GI50 (OVCAR-8 ovarian): 0.0665 µM
- TGI (OVCAR-8 ovarian): 0.248 µM
- GI50 (M14 melanoma): 0.0512 µM
- TGI (M14 melanoma): 0.216 µM
- GI50 (A549 NSCLC): 0.119 µM
- TGI (A549 NSCLC): 0.339 µM
- GI50 (NCI-H460 NSCLC): 0.574 µM
- TGI (NCI-H460 NSCLC): 1.94 µM
- GI50 (NCI-H322M lung): 1.14 µM
- TGI (NCI-H322M lung): 2.42 µM
- GI50 (MCF7 breast): 0.553 µM
- TGI (MCF7 breast): 1.83 µM
- GI50 (HT29 colon): 0.227 µM
- TGI (HT29 colon): 0.707 µM
- GI50 (SK-OV-3 ovarian): 0.158 µM
- TGI (SK-OV-3 ovarian): 0.299 µM
- GI50 (SN12C renal): 0.466 µM
- TGI (SN12C renal): 1.83 µM
- GI50 (HCT-15 colon): 0.157 µM
- TGI (HCT-15 colon): 0.913 µM
- GI50 (EKVX NSCLC): < 0.01 µM
- TGI (EKVX NSCLC): 0.0224 µM
- GI50 (MDA-MB-468 breast): < 0.01 µM
- TGI (MDA-MB-468 breast): 0.0195 µM
- GI50 (SK-MEL-28 melanoma): 1.45 µM
- TGI (SK-MEL-28 melanoma): 2.83 µM
- GI50 (HCC-2998 colon): 0.0303 µM
- TGI (HCC-2998 colon): 0.177 µM
- GI50 (U251 glioblastoma): 0.119 µM
- TGI (U251 glioblastoma): 0.399 µM
- GI50 (CCRF-CEM leukemia): < 0.01 µM
- TGI (CCRF-CEM leukemia): 0.015 µM
- GI50 (IGROV1 ovarian): 0.0142 µM
- TGI (IGROV1 ovarian): 0.0275 µM
- GI50 (NCI/ADR-RES ovarian): 0.0251 µM
- TGI (NCI/ADR-RES ovarian): 0.102 µM
- GI50 (SK-MEL-5 melanoma): 0.479 µM
- TGI (SK-MEL-5 melanoma): 1.76 µM
- GI50 (SR leukemia): < 0.01 µM
- TGI (SR leukemia): 0.0205 µM
- GI50 (PC-3 prostate): 0.0344 µM
- TGI (PC-3 prostate): 0.14 µM
- GI50 (HOP-92 NSCLC): < 0.01 µM
- TGI (HOP-92 NSCLC): < 0.01 µM
- GI50 (A498 renal): 0.0205 µM
- TGI (A498 renal): 0.0438 µM
- GI50 (HL-60(TB) leukemia): < 0.01 µM
- TGI (HL-60(TB) leukemia): 0.0102 µM
- GI50 (TK-10 renal): 0.0158 µM
- TGI (TK-10 renal): 0.0336 µM
- GI50 (MALME-3M melanoma): 0.0148 µM
- TGI (MALME-3M melanoma): 0.029 µM
- GI50 (NCI-H226 lung): 0.0751 µM
- TGI (NCI-H226 lung): 0.449 µM
- GI50 (ACHN renal): < 0.01 µM
- TGI (ACHN renal): < 0.01 µM
- GI50 (K-562 leukemia): 0.0462 µM
- TGI (K-562 leukemia): 0.382 µM
- GI50 (RPMI-8226 leukemia): 0.0142 µM
- TGI (RPMI-8226 leukemia): 0.0284 µM
- GI50 (T-47D breast): 0.0582 µM
- TGI (T-47D breast): 0.764 µM
- GI50 (NCI-H23 lung): < 0.01 µM
- TGI (NCI-H23 lung): 0.012 µM
- GI50 (RXF 393 renal): < 0.01 µM
- TGI (RXF 393 renal): 0.0152 µM
- GI50 (HOP-62 NSCLC): 0.0107 µM
- TGI (HOP-62 NSCLC): 0.0355 µM
- GI50 (CAKI-1 renal): < 0.01 µM
- TGI (CAKI-1 renal): < 0.01 µM
- GI50 (KM12 colon): 0.0183 µM
- TGI (KM12 colon): 0.0378 µM
- GI50 ([…]-0 renal): 0.0104 µM
- TGI (786-0 renal): 0.025 µM
- GI50 (MOLT-4 leukemia): 0.0155 µM
- TGI (MOLT-4 leukemia): 0.0294 µM
- GI50 (OVCAR-5 ovarian): 0.289 µM
- TGI (OVCAR-5 ovarian): 1.58 µM
